Measured values from PMC6199744, “Development of Chemical Proteomics for the Folateome and Analysis of the Kinetoplastid Folateome” (ACS Infectious Diseases, 2018).
Where two headings read alike, the source gives them in different places.

What was measured:
Assay type in all cases: binding
[1] = target: T1, HeLa cell extract proteins (Homo sapiens, UniProt Q15084)
T1 construct: endogenous in cells; host or cells: HeLa cell extract
T1 sequence (Q15084 20-440): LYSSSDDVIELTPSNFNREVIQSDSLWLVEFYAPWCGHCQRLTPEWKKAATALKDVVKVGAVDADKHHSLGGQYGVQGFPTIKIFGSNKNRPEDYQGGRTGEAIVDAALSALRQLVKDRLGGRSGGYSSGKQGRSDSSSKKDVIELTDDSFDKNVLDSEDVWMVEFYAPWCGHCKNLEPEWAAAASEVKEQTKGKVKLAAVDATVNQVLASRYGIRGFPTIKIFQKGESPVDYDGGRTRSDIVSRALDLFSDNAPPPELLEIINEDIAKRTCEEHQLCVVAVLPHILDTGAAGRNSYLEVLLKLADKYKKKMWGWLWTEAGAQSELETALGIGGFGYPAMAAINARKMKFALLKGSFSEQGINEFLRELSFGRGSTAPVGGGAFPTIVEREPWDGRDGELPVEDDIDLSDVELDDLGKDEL

[2] = target: T2, HeLa cell extract proteins (Homo sapiens, UniProt P40616)
T2 construct: endogenous in cells; host or cells: HeLa cell extract
T2 sequence (P40616 1-181): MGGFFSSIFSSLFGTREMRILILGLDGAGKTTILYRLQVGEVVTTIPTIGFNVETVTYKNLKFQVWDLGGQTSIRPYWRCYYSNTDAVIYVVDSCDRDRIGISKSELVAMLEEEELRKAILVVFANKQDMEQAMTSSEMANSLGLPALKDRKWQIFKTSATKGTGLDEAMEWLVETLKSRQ

[3] = target: T3, HeLa cell extract proteins (Homo sapiens, UniProt Q9NU22)
T3 construct: endogenous in cells; host or cells: HeLa cell extract

[4] = target: T4, HeLa cell extract proteins (Homo sapiens, UniProt Q13409)
T4 construct: endogenous in cells; host or cells: HeLa cell extract

[5] = target: T5, HeLa cell extract proteins (Homo sapiens, UniProt Q15067)
T5 construct: endogenous in cells; host or cells: HeLa cell extract
T5 sequence (Q15067 1-660): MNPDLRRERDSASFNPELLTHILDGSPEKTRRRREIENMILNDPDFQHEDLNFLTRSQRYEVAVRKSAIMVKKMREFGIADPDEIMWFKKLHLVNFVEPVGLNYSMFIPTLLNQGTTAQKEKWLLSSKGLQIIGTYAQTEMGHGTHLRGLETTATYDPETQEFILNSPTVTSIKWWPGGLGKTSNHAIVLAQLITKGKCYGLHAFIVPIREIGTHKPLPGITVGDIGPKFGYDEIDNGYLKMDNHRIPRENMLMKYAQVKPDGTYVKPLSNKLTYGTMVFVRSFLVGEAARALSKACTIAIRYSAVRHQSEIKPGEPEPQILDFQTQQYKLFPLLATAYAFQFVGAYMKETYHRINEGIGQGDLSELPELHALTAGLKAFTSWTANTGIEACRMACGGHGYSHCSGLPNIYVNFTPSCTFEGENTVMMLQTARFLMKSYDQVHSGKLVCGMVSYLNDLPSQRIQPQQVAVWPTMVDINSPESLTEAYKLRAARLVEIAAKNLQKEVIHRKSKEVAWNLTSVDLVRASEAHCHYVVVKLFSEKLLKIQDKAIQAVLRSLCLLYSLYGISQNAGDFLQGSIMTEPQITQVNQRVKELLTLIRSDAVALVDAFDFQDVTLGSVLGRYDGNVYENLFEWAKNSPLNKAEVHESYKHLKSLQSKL

[6] = target: T6, HeLa cell extract proteins (Homo sapiens, UniProt Q71U36)
T6 construct: endogenous in cells; host or cells: HeLa cell extract

[7] = target: T7, HeLa cell extract proteins (Homo sapiens, UniProt P05165)
T7 construct: endogenous in cells; host or cells: HeLa cell extract
T7 sequence (P05165 53-728): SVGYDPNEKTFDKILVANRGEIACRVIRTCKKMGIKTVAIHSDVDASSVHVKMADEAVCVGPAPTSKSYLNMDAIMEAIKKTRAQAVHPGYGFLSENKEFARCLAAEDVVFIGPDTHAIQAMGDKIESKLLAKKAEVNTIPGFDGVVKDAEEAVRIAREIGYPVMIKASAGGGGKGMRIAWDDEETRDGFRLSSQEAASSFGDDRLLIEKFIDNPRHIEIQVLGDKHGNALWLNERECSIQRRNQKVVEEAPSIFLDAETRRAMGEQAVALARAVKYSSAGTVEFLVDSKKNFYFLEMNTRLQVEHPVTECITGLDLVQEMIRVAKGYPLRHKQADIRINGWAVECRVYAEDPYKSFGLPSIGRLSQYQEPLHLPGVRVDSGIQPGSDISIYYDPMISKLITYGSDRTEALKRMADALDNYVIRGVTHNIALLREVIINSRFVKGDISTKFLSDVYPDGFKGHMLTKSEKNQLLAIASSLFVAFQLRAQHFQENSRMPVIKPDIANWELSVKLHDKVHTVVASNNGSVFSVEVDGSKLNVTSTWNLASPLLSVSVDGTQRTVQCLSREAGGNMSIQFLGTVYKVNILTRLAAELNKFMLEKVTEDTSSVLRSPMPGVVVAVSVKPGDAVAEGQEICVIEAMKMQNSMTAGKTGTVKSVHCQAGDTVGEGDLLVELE

[8] = target: T8, HeLa cell extract proteins (Homo sapiens, UniProt O15269)
T8 construct: endogenous in cells; host or cells: HeLa cell extract
T8 sequence (O15269 1-473): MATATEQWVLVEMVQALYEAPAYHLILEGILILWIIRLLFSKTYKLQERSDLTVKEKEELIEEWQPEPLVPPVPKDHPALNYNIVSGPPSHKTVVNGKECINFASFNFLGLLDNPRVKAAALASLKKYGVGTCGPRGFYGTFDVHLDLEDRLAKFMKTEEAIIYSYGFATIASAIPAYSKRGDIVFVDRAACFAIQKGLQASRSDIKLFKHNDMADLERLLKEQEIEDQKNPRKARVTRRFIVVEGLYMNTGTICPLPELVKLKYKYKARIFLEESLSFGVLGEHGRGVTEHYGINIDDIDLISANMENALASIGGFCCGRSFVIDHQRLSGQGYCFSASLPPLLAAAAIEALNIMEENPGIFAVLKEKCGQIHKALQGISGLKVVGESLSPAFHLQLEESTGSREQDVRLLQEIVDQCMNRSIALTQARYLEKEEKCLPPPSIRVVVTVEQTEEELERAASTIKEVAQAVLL

[9] = HeLa, protein PCCA (80 KDA PROTEIN)

T6 sequence (Q71U36 whole entry): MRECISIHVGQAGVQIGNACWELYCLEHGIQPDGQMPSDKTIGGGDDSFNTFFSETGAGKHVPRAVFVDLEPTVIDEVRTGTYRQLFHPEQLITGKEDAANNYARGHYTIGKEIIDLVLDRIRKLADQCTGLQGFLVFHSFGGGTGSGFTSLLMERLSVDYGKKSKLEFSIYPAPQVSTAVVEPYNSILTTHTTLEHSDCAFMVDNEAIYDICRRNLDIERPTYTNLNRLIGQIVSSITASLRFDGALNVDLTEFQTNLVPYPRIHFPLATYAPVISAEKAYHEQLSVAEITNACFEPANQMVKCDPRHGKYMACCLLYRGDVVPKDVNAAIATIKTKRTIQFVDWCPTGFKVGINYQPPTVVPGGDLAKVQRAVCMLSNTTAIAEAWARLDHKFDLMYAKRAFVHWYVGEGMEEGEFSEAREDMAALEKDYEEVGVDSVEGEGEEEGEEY
T4 sequence (Q13409 whole entry): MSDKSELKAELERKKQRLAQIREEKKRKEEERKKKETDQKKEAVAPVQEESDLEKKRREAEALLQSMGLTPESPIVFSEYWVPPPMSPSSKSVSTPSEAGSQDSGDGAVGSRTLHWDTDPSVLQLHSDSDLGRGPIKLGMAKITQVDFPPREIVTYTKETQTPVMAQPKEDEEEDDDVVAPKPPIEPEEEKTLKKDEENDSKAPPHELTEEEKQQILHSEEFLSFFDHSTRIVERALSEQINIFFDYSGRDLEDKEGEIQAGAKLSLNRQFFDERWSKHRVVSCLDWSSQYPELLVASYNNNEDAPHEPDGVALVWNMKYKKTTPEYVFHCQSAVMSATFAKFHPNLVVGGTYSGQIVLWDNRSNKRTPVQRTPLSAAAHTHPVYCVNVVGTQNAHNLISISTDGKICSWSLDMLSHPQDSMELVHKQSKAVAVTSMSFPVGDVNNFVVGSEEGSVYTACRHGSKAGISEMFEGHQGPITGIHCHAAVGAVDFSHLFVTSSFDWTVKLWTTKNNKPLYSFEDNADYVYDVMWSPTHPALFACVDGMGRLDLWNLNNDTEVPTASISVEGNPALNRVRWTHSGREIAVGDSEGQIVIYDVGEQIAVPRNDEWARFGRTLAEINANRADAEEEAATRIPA

| Structure (SMILES) | fold changes relative to vehicle control ([1]; protein PDIA6, HeLa) | fold changes relative to vehicle control ([2]; captured protein ARL1, HeLa) | fold changes relative to vehicle control ([3]; captured protein MDN1, HeLa) | fold changes relative to vehicle control ([4]; HeLa, protein DYNC1I2) | fold changes relative to vehicle control ([5]; HeLa, protein ACOX1) | fold changes relative to vehicle control ([6]; HeLa, protein TUBA1A) | fold changes relative to vehicle control ([7]; captured protein PCCA, HeLa) | fold changes relative to vehicle control ([8]; captured protein SPTLC1, HeLa) | fold changes relative to vehicle control ([1]; HeLa, protein PDIA6) | fold changes relative to vehicle control ([2]; protein ARL1, HeLa) | fold changes relative to vehicle control ([3]; HeLa, protein MDN1) | fold changes relative to vehicle control [7, 9] | fold changes relative to vehicle control ([8]; HeLa, protein SPTLC1) | also measured |
| --- | --- | --- | --- | --- | --- | --- | --- | --- | --- | --- | --- | --- | --- | --- |
| Nc1nc2cccc(-c3ccccc3)c2n1Cc1ccc(Cl)c(Cl)c1 [compound 3] | 0.89 | 1.06 | 1.17 | 0.89 | 1.33 | 1.06 | 1.01 | 1.09 | – | – | – | – | – | – |
| Nc1nc2[nH]cc(CCc3ccc(C(=O)N[C@@H](CCC(=O)O)C(=O)O)cc3)c2c(=O)[nH]1 [PTX, pemetrexed] | – | – | – | – | – | – | – | – | – | – | – | – | – | fold changes relative to vehicle control [1]: 1.12; fold changes relative to vehicle control [2]: 0.77; fold changes relative to vehicle control [3]: 0.94; fold changes relative to vehicle control [4]: 0.94; fold changes relative to vehicle control [5]: 0.95; fold changes relative to vehicle control [6]: 0.91; fold changes relative to vehicle control [7]: 0.21; fold changes relative to vehicle control [8]: 0.95 |
| Nc1nc2c(c(=O)[nH]1)N(C=O)C(CNc1ccc(C(=O)N[C@@H](CCC(=O)O)C(=O)O)cc1)CN2 (some centres unmarked) [LEU, leucovorin] | – | – | – | 0.9 | 1 | 0.95 | – | – | 1.03 | 0.8 | 0.96 | 1.07 | 0.9 | – |
| CCCCCCOc1cccc(Cc2cnc(N)nc2N)c1 [compound 2] | 1.75 | 1.09 | 0.87 | 1.13 | 0.92 | 0.92 | 0.99 | 1.03 | – | – | – | – | – | – |
| NCCOCCOCC(=O)Nc1nc2ncc(CNc3ccc(C(=O)NC(CCC(=O)O)C(=O)O)cc3)nc2c(=O)[nH]1 (centres unmarked) [compound 6] | – | – | – | 0.93 | 0.99 | 0.97 | – | – | 1.35 | 0.9 | 1.12 | 0.98 | 0.95 | – |
| CCCCCCOc1ccc(Cc2cnc(N)nc2N)cc1 [compound 1] | 1.09 | 0.95 | 0.94 | 0.88 | 0.98 | 0.95 | 1.07 | 0.8 | – | – | – | – | – | – |
| NCCCNc1ccc(C(=O)NC(CCC(=O)O)C(=O)O)cc1 (centres unmarked) [compound 7] | – | – | – | 0.95 | 0.94 | 1 | – | – | 1 | 1.06 | 1 | 1.04 | 1.03 | – |
